This passage reports IC50 results from patent US7713994B2 (Wyeth LLC, priority 2005, dated 2010).

By IC50 is commonly meant the concentration needed to halve the response being measured.

One assay addresses T1, cyclin E/CDK2 enzyme (Homo sapiens, UniProt P24941).
T1 construct: made in house; host or cells: Sf9 insect cells, recombinant baculovirus
The assay is described as follows: CDK2 ELISA kinase assay (phospho-Rb ser 795 detection). It is filed as biochemical. To be noted: In Vitro Enzyme Assay, cyclin E/CDK2, read-out: CDK2 IC50. In outline: (§1)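 Sf9-derived cyclin/CDK, 200 μM ATP, immobilized GST-Rb; 30° C/1 h. Detection: phospho-Ser795 Ab, HRP, TMB, OD450.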
Background: An ELISA detects its analyte on a solid surface through an enzyme-linked reagent.

A further assay concerns HCT-116. The assay is described as follows: Cytotoxicity assay (SRB), HCT-116. It is filed as cell-based. To be noted: Homo sapiens, HCT-116, 72 h, HCT116 cells, 3 days, SRB; read-out: In Vitro Cellular Activity IC50 HCT116. In outline: (§2)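 Cells seeded overnight at 37 °C, 7% CO2 (BT474 12000, HCT-116 4000, LoVo and MCF-7 6000 cells/well) in RPMI 1640 with 5% FBS, then exposed to compound dilutions for 3 days (BT474 6 days). Survival versus untreated controls by TCA fixation and SRB staining, absorbance 540 nm.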

Another assay has as its system LoVo. The assay is described as follows: Cytotoxicity assay (SRB), LoVo. It is filed as cell-based. To be noted: Homo sapiens, LoVo, 72 h, LoVo cells, 3 days, SRB; read-out: In Vitro Cellular Activity IC50 LOVO. The method, boiled down: as §2
For the next assay, the system named is BT474. The assay is described as follows: Cytotoxicity assay (SRB), BT474. It is filed as cell-based. Particulars: Homo sapiens, BT-474, 144 h, BT474 cells, 6 days, SRB; read-out: In Vitro Cellular Activity IC50 BT474. The method, boiled down: as §2
For a further assay, the target named is T2, cyclin D1/cdk 4 enzyme (Homo sapiens, UniProt P11802).
T2 construct: made in house; host or cells: Sf9 insect cells, recombinant baculovirus
The assay is described as follows: CDK4 ELISA kinase assay (phospho-Rb ser 795 detection). It is filed as biochemical. Particulars: In Vitro Enzyme Assay, cyclin D1/cdk 4, read-out: CDK4 IC50. In outline:
as §1

Another assay concerns MCF-7. The assay is described as follows: Cytotoxicity assay (SRB), MCF-7. It is filed as cell-based. Particulars: Homo sapiens, MCF7, 72 h, MCF-7 cells, 3 days, SRB; read-out: In Vitro Cellular Activity IC50 MCF-7. The method, boiled down: as §2
Another assay addresses T3, cyclin B/CDK1 enzyme (Homo sapiens, UniProt P06493).
T3 construct: purchased New England BioLabs; host or cells: Sf9 insect cells, recombinant baculovirus
The assay is described as follows: CDK1 ELISA kinase assay (phospho-Rb ser 795 detection). It is filed as biochemical. To be noted: In Vitro Enzyme Assay, cyclin B/CDK1, read-out: CDK1 IC50. In outline:
as §1

T2 sequence (P11802 whole entry, species assumed): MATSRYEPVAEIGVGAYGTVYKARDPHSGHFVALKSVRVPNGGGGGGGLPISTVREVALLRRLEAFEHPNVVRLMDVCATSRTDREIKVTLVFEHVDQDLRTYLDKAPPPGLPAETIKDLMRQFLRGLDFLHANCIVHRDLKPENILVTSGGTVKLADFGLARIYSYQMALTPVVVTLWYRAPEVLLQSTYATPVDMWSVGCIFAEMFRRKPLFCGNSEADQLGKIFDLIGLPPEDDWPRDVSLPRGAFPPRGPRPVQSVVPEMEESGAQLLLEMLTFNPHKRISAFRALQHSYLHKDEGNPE
T2 sequence (P24385 whole entry partner, species assumed): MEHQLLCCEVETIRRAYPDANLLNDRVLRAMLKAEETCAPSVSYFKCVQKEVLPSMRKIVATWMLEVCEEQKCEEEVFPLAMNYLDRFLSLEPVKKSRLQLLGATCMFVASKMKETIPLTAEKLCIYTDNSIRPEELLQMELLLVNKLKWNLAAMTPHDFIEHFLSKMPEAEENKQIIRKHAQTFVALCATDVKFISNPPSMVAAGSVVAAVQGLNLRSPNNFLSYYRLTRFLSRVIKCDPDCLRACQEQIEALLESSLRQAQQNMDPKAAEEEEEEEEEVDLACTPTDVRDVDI
T3 sequence (P06493 whole entry): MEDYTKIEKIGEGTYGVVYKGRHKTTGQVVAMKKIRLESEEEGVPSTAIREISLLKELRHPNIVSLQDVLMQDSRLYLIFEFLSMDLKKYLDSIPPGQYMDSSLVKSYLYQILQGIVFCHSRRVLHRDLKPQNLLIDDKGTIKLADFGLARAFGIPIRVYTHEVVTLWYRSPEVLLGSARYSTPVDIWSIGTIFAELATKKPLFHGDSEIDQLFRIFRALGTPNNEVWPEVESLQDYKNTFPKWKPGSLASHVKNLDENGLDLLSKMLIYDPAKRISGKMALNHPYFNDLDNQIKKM
T3 sequence (P14635 whole entry partner): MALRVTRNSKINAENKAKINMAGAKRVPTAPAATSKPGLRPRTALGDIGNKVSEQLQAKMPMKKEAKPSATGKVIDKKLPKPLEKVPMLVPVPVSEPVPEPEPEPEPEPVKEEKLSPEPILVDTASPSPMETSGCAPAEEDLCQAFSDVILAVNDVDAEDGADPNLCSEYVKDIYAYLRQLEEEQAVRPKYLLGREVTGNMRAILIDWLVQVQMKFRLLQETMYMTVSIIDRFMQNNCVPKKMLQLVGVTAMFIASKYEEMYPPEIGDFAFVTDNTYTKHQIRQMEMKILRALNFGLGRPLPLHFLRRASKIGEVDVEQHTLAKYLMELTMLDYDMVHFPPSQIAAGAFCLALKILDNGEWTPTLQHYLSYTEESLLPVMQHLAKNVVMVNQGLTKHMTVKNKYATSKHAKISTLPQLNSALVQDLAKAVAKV

Regarding `COc1ccc(CNC=C2C(=O)NC(=O)c3ccc(C=Cc4ccccn4)cc32)cc1O` [Example 735, 4-[(3-Hydroxy-4-methoxy-benzylamino)-methylene]-6-(2-pyridin-2-yl-vinyl)-4H-isoquinoline-1,3-dione], the IC50 is greater than 50 µM at cyclin E/CDK2 enzyme; 18.2 µM in the assay with HCT-116; 11.4 µM in the assay with LoVo; 20.1 µM in the assay on BT474; 0.14 µM on cyclin D1/cdk 4 enzyme; 21.9 µM in the assay on MCF-7. At cyclin B/CDK1 enzyme, the IC50 was greater than 50 µM.
As to `CN(C)Cc1ccc(C=Cc2ccc3c(c2)C(=CNCc2ccc(O)c(O)c2)C(=O)NC3=O)cc1` [Example 736, 4-[(3,4-Dihydroxy-benzylamino)-methylene]-6-[2-(4-dimethylaminomethyl-phenyl)-vinyl]-4H-isoquinoline-1,3-dione], the concentration for half-maximal inhibition (IC50) at cyclin E/CDK2 enzyme is 21.1 µM; in the assay on HCT-116, 20.5 µM; with LoVo, 11.5 µM; with BT474 it was 39.9 µM; at cyclin D1/cdk 4 enzyme, 0.84 µM; with MCF-7, greater than 50 µM. Also, the IC50 at cyclin B/CDK1 enzyme is greater than 50 µM.
With `NS(=O)(=O)c1ccc(CNC=C2C(=O)NC(=O)c3ccc(-c4ccc(F)cc4)cc32)cc1` [Example 738, 4-({[6-(4-Fluoro-phenyl)-1,3-dioxo-2,3-dihydro-1H-isoquinolin-4-ylidenemethyl]-amino}-methyl)-benzenesulfonamide], the IC50 on cyclin E/CDK2 enzyme was 32.4 µM; with HCT-116, 18.8 µM; in the assay with LoVo, 39.1 µM; in the assay with BT474, 47.1 µM; at cyclin D1/cdk 4 enzyme, 0.45 µM; in the assay with MCF-7, 15.8 µM. The IC50 at cyclin B/CDK1 enzyme amounted to 32.4 µM.
On to `NS(=O)(=O)c1ccc(CNC=C2C(=O)NC(=O)c3ccc(-c4cccc(F)c4)cc32)cc1` [Example 739, 4-({[6-(3-Fluoro-phenyl)-1,3-dioxo-2,3-dihydro-1H-isoquinolin-4-ylidenemethyl]-amino}-methyl)-benzenesulfonamide], for which the IC50 was greater than 50 µM at cyclin E/CDK2 enzyme; 26.4 µM with HCT-116; greater than 50 µM in the assay with LoVo; 32.8 µM with BT474; 1.77 µM at cyclin D1/cdk 4 enzyme; 17.1 µM with MCF-7. Further, on cyclin B/CDK1 enzyme, the IC50 was found to be 30.3 µM.
As for `NS(=O)(=O)c1ccc(CNC=C2C(=O)NC(=O)c3ccc(-c4ccccc4F)cc32)cc1` [Example 740, 4-({[6-(2-Fluoro-phenyl)-1,3-dioxo-2,3-dihydro-1H-isoquinolin-4-ylidenemethyl]-amino}-methyl)-benzenesulfonamide], the IC50 at cyclin E/CDK2 enzyme worked out at 3.7 µM; in the assay with HCT-116, 7.7 µM; in the assay with LoVo, 10 µM; in the assay with BT474, 9.7 µM; on cyclin D1/cdk 4 enzyme, 1.81 µM; in the assay with MCF-7, 8.3 µM. Also, the IC50 at cyclin B/CDK1 enzyme was found to be 13.5 µM.
As for `NS(=O)(=O)c1ccc(CNC=C2C(=O)NC(=O)c3ccc(-c4ccc(Cl)cc4)cc32)cc1` [Example 749, 4-({[6-(4-Chloro-phenyl)-1,3-dioxo-2,3-dihydro-1H-isoquinolin-4-ylidenemethyl]-amino}-methyl)-benzenesulfonamide], the IC50 at cyclin E/CDK2 enzyme was 8 µM; with HCT-116 it was 20.9 µM; in the assay on LoVo, 47.2 µM; in the assay on BT474 it was greater than 50 µM; at cyclin D1/cdk 4 enzyme, 1.48 µM; in the assay with MCF-7, 14.1 µM. Further, on cyclin B/CDK1 enzyme, the IC50 amounted to 38.8 µM.
Take `COc1ccc(-c2ccc3c(c2)C(=CNCc2ccc(O)c(O)c2)C(=O)NC3=O)cc1` [Example 764, 4-[(3,4-Dihydroxy-benzylamino)-methylene]-6-(4-methoxy-phenyl)-4H-isoquinoline-1,3-dione]: the IC50 on cyclin E/CDK2 enzyme came out at 7.3 µM; with HCT-116 it was 9.3 µM; in the assay on LoVo it was 8.6 µM; in the assay on BT474, 23.1 µM; on cyclin D1/cdk 4 enzyme, 0.06 µM; with MCF-7, 10.3 µM. The IC50 on cyclin B/CDK1 enzyme was 16.5 µM.
Take `COc1cccc(-c2ccc3c(c2)C(=CNCc2ccc(O)c(O)c2)C(=O)NC3=O)c1` [Example 765, 4-[(3,4-Dihydroxy-benzylamino)-methylene]-6-(3-methoxy-phenyl)-4H-isoquinoline-1,3-dione]: the IC50 at cyclin E/CDK2 enzyme came out at 11.5 µM; with HCT-116, 15.8 µM; with LoVo, 18.3 µM; in the assay with BT474 it was 33.4 µM; on cyclin D1/cdk 4 enzyme it was 0.27 µM; in the assay on MCF-7 it was 14.4 µM. The IC50 at cyclin B/CDK1 enzyme turned out to be 21.1 µM.
For `COc1ccccc1-c1ccc2c(c1)C(=CNCc1ccc(O)c(O)c1)C(=O)NC2=O` [Example 766, 4-[(3,4-Dihydroxy-benzylamino)-methylene]-6-(2-methoxy-phenyl)-4H-isoquinoline-1,3-dione], the IC50 at cyclin E/CDK2 enzyme worked out at 14.4 µM; in the assay on HCT-116, 21.6 µM; in the assay with LoVo, 32.3 µM; in the assay on BT474, 33.9 µM; at cyclin D1/cdk 4 enzyme, 1.29 µM; in the assay on MCF-7, 22.1 µM. Moreover, the IC50 on cyclin B/CDK1 enzyme stood at 43.4 µM.
For `O=C1NC(=O)c2ccc(-c3ccc(F)cc3)cc2C1=CNCc1ccc(O)c(O)c1` [Example 767, 4-[(3,4-Dihydroxy-benzylamino)-methylene]-6-(4-fluoro-phenyl)-4H-isoquinoline-1,3-dione], the IC50 on cyclin E/CDK2 enzyme turned out to be 9 µM; in the assay with HCT-116 it was 25.9 µM; in the assay on LoVo, 21.4 µM; in the assay with BT474 it was 44 µM; on cyclin D1/cdk 4 enzyme, 0.17 µM; in the assay with MCF-7 it was 25.2 µM. The IC50 at cyclin B/CDK1 enzyme amounted to 15.4 µM.
In the case of `O=C1NC(=O)c2ccc(-c3cccc(F)c3)cc2C1=CNCc1ccc(O)c(O)c1` [Example 768, 4-[(3,4-Dihydroxy-benzylamino)-methylene]-6-(3-fluoro-phenyl)-4H-isoquinoline-1,3-dione], the IC50 at cyclin E/CDK2 enzyme worked out at 9.6 µM; with HCT-116, 27.4 µM; in the assay on LoVo, 25.7 µM; in the assay on BT474, 29.1 µM; on cyclin D1/cdk 4 enzyme, 0.55 µM; in the assay with MCF-7, 28.4 µM. The IC50 on cyclin B/CDK1 enzyme stood at 20.6 µM.
Take `O=C1NC(=O)c2ccc(-c3ccccc3F)cc2C1=CNCc1ccc(O)c(O)c1` [Example 769, 4-[(3,4-Dihydroxy-benzylamino)-methylene]-6-(2-fluoro-phenyl)-4H-isoquinoline-3,3-dione]: the IC50 at cyclin E/CDK2 enzyme stood at 3.9 µM; with HCT-116, 13.4 µM; with LoVo, 15.5 µM; in the assay on BT474, 17.9 µM; at cyclin D1/cdk 4 enzyme, 0.03 µM; in the assay on MCF-7 it was 17.9 µM. In addition, the IC50 on cyclin B/CDK1 enzyme is 14.7 µM.
For `O=C1NC(=O)c2ccc(-c3cccc(C(=O)O)c3)cc2C1=CNCc1ccc(O)c(O)c1` [Example 771, 3-{4-[(3,4-Dihydroxy-benzylamino)-methylene]-1,3-dioxo-1,2,3,4-tetrahydro-isoquinolin-6-yl}-benzoic acid], the IC50 on cyclin E/CDK2 enzyme was 10 µM; in the assay with HCT-116, 39.5 µM; in the assay with LoVo it was 48 µM; in the assay on BT474 it was 33.3 µM; at cyclin D1/cdk 4 enzyme, 0.82 µM; in the assay with MCF-7, greater than 50 µM. Further, on cyclin B/CDK1 enzyme, the IC50 stood at 26.5 µM.
Consider `O=C1NC(=O)c2ccc(-c3ccc(C(F)(F)F)cc3)cc2C1=CNCc1ccc(O)c(O)c1` [Example 772, 4-[(3,4-Dihydroxy-benzylamino)-methylene]-6-(4-trifluoromethyl-phenyl)-4H-isoquinoline-1,3-dione], for which the IC50 at cyclin E/CDK2 enzyme turned out to be 10.7 µM; in the assay with HCT-116, 15.6 µM; in the assay with LoVo, 15.4 µM; in the assay on BT474 it was 28.1 µM; at cyclin D1/cdk 4 enzyme it was 0.51 µM; in the assay with MCF-7, 12.2 µM. Also, the IC50 on cyclin B/CDK1 enzyme stood at 40.6 µM.
In the case of `O=C1NC(=O)c2ccc(-c3cccc(C(F)(F)F)c3)cc2C1=CNCc1ccc(O)c(O)c1` [Example 773, 4-[(3,4-Dihydroxy-benzylamino)-methylene]-6-(3-trifluoromethyl-phenyl)-4H-isoquinoline-1,3-dione], the IC50 on cyclin E/CDK2 enzyme is 16.5 µM; in the assay on HCT-116, 13.7 µM; in the assay on LoVo, 14.4 µM; in the assay with BT474 it was 20.9 µM; at cyclin D1/cdk 4 enzyme it was 1.18 µM; in the assay on MCF-7, 12.6 µM. The IC50 at cyclin B/CDK1 enzyme was greater than 50 µM.
As for `CC(=O)c1cccc(-c2ccc3c(c2)C(=CNCc2ccc(O)c(O)c2)C(=O)NC3=O)c1` [Example 776, 6-(3-Acetyl-phenyl)-4-[(3,4-dihydroxy-benzylamino)-methylene]-4H-isoquinoline-1,3-dione], the IC50 on cyclin E/CDK2 enzyme amounted to 13.8 µM; in the assay with HCT-116 it was 15.2 µM; in the assay on LoVo, 10.3 µM; in the assay with BT474, 17.2 µM; on cyclin D1/cdk 4 enzyme, 0.24 µM; in the assay with MCF-7, 11.2 µM. For the same molecule, the IC50 on cyclin B/CDK1 enzyme was greater than 50 µM.
